From patent US8557823B2, “Family of PFKFB3 inhibitors with anti-neoplastic activities” (Advanced Cancer Therapeutics, LLC, priority 2007, dated 2013)

Legend:
[1] = test system: HeLa cervical cancer cells; test: In vitro growth inhibition, HeLa; assay type: cell-based; conditions: Homo sapiens
Procedure: (§1) The K562, HL-60, MDA-MB231, and melanoma (CRL-11174) human cancer cell lines were purchased from ATCC (American Tissue Type Culture Collection, Manassas, Va., United States of America). HeLa, A549, Lewis Lung Carcinoma, MDA-MB231, and melanoma cells were grown in Dulbecco's Modified Eagle Medium (DMEM) (Hyclone, Logan, Utah, United States of America) supplemented with 10% fetal bovine serum (Hyclone, Logan, Utah, United States of America) and 50 μg/mL gentamicin sulfate (Invitrogen, Carlsbad, Calif., United States of America). The HL-60, K562, and Jurkat cell lines were grown in RPMI-1640 medium (Hyclone, Logan, Utah, United States of America) supplemented with 10% fetal bovine serum and 50 μg/mL gentamicin sulfate. […]
(§2) Cells were collected 48 hours post-treatment, and cell number and viability were determined by trypan blue exclusion. […]

NHBE-ht/LT/ras cells = test: In vitro growth inhibition, transformed NHBE cells; assay type: cell-based, human
Procedure: The K562, HL-60, MDA-MB231, and melanoma (CRL-11174) human cancer cell lines were purchased from ATCC (American Tissue Type Culture Collection, Manassas, Va., United States of America). HeLa, A549, Lewis Lung Carcinoma, MDA-MB231, and melanoma cells were grown in Dulbecco's Modified Eagle Medium (DMEM) (Hyclone, Logan, Utah, United States of America) supplemented with 10% fetal bovine serum (Hyclone, Logan, Utah, United States of America) and 50 μg/mL gentamicin sulfate (Invitrogen, Carlsbad, Calif., United States of America). The HL-60, K562, and Jurkat cell lines were grown in RPMI-1640 medium (Hyclone, Logan, Utah, United States of America) supplemented with 10% fetal bovine serum and 50 μg/mL gentamicin sulfate. The primary Normal Human Bronchial Epithelial (NHBE) cells and cells that were immortalized with human telomerase (ht) and large T antigen (LT) and transformed with mutated ras (ht/LT/ras cells) were cultured in Bronchial Epithelial Cell Basal Growth Medium (Cambrex, Walkersville, Md., United States of America) supplemented with 52 μg/mL bovine pituitary extract, 0.5 μg/mL hydrocortisone, […], 0.5 μg/mL epinephrine, 10 μg/mL transferrin, 5 μg/mL insulin, 0.1 ng/mL retinoic acid, 6.5 ng/mL triiodothyronine, 50 μg/mL gentamycin, and 50 ng/mL amphotericin-B (SingleQuots, Cambrex, Walkersville, Md., United States of America). All cell lines were maintained under 5% CO2 at 37° C.
(§3) All cell lines were plated at 1×10^5 cells/well in the appropriate medium. For suspension cells, increasing concentrations of 1 were added immediately to the medium, whereas, compound 1 treatment was initiated the following day for adherent cell lines. For dose-dependent studies, compound 1 was added in increasing concentrations for 36 hours. For time-dependent studies, 10 μM of compound 1 was added at time 0, 4, 8, 16, 24, or 36 hours. […]
as §2

Jurkat leukemia cells = test: In vitro growth inhibition, Jurkat; assay type: cell-based; conditions: Homo sapiens, 50% of vehicle control cell growth
Procedure: as §1, §2

[2] = test system: PFKFB3+/- ht/LT/ras fibroblasts; test: Growth inhibition of PFKFB3 haplo-insufficient transformed fibroblasts; assay type: cell-based, mice; conditions: Mus musculus, Fibroblast, 48 hours
From the text: (§4) FIG. 6B is a bar graph showing the anti-proliferative effects of 3PO in fibroblasts from wild-type (+/+) or haplo-insufficient (+/−) PFKFB3 mice which were subsequently immortalized and transformed with human telomerase (ht), large T antigen (LT), and oncogenic H-ras^v12. Cell numbers (expressed as % of cell numbers of control cells) for transformed wild type (+/+) cells are shown in solid bars and numbers for transformed haplo-insufficient (+/−) cells are shown in striped bars. As indicated at the bottom of the graph, cells were incubated with vehicle or increasing amounts of 3PO (5, 10, 20, 30, 40, or 60 μM). Viable cells were counted after 48 hours. The bars represent the mean±STD of triplicate values from a representative experiment. * p-value<0.01 represents statistical difference between vehicle control and 3PO treated samples.
(§5) Cells were collected 48 hours post-treatment, and cell number and viability were determined by trypan blue exclusion. IC50 values were calculated as the compound 1 concentration needed for 50% of vehicle treated cell growth.
(§6) One of the most difficult challenges of new anti-neoplastic therapies is in situ target validation. To address this question, two different cell lines with varying levels of PFKFB3 expression were studied. […]

[3] = test system: Jurkat cells expressing unaltered PFKFB3 levels; test: Growth inhibition of control Jurkat cells (empty vector, doxycycline); assay type: cell-based; conditions: Homo sapiens, 48 hours
Procedure: FIG. 6D is a bar graph showing the anti-proliferative effects of 3PO in Jurkat cells engineered to over-express PFKFB3 through doxycylin treatment utilizing the Tet-on system (+PFKFB3, striped bars). Twenty-four hours prior to 3PO treatment, 1 μg/mL of doxycyclin is incubated with Jurkat cells containing a PFKFB3-expressing vector in order to induce PFKFB3 protein levels. Control cells (−PFKFB3, solid bars) containing an empty vector were similarly treated with doxycyclin and served as background PFKFB3 expression. Both cell types were subsequently incubated with increasing concentrations of 3PO (1, 3, 10, or 33 μM) or vehicle (V), and viable cells were analyzed after 48 hours. The bars represent the mean±STD of triplicate values from a representative experiment.
as §3, §2

[4] = Echocardiographic examination of cardiac function; assay type: in vivo; conditions: compound-treated mice, 0.07 mg/g i.p.
Procedure: A difference in cardiac ^18F-2-DG uptake was also observed between the compound 1-treated and control group mice. Echocardiograms were performed as described in Dawn et al., Proc. Natl. Acad. Aci., U.S.A., 102, 3766-3771 (2005). […] Overall, it appears that 1 targets PFK2 activity in vivo resulting in a reduced glycolytic phenotype.

[5] = test system: melanoma (CRL-11174) cells; test: In vitro growth inhibition, melanoma line; assay type: cell-based; conditions: Homo sapiens
Procedure: as §1, §2

[6] = test system: +/+ ht/LT/ras fibroblasts; test: Growth inhibition of wild-type transformed fibroblasts; assay type: cell-based, mice; conditions: Mus musculus, Fibroblast, 48 hours
From the text: as §4, §5, §6

## O=C(/C=C/c1cccnc1)c1ccncc1 [Compound 1, 3-(3-pyridinyl)-1-(4-pyridinyl)-2-propen-1-one]
[1]
  IC50: 24 µM
NHBE-ht/LT/ras cells; Homo sapiens, NHBE, 48 h
  IC50: 1.5 µM
NHBE-ht/LT/ras cells; transformed NHBE cells
  concentration at which treatment was completely cytotoxic: approximately 10 μM
  concentration at which treatment was cytostatic: below 1 μM
Jurkat leukemia cells
  IC50: 1.4 µM
[2]
  IC50: 26 µM
[3]
  IC50: 8.9 µM
[4]
  ejection fraction: 71%±6%
[5]
  IC50: 15 µM
[6]
  IC50: 49 µM
